Assay results published in patent publication US20200345021A1, “METHOD AND SYSTEM FOR ENHANCING THE EFFICACY USING IONIZED/A[…] PEROXIDE IN REDUCING MICROBIAL POPULATIONS, METHOD OF USE THEREOF” (priority 2019, published 2020).
Where “and” joins values, the source holds several entries; their conditions need not be identical. Equal entries are not always repeated. Where two headings read alike, the source gives them in different places. Marks after values point to notes of the source that are not given here.

Assays:
[1] = test system: total aerobic plate count (APC), native microorganisms; conditions: for Total plate count: not inoculated
Description: (§1) The untreated (control) and treated samples were placed separately in a Stomacher bag with 20˜100 ml of neutralizing buffer and pummeled at 260 rpm for 2 mm using Stomacher (Interscience Laboratories Inc.). Decimal dilutions of the samples were made with 0.1% peptone (Difco) and aliquots (0.1 or 1 ml) were spread plated in duplicate onto TSA with incubation at 37° C. for 24 h for the enumeration of total aerobic plate count (APC), and onto Dichloran Rose Bengal Chlortetracycline (DRBC, Difco) agar with incubation at 25° C. for 5 days for enumeration of yeast and mold. DRBC plates were wrapped with aluminum foil to […]. Experiments were conducted independently 8 times. Colonies were counted and reported as log CFU/piece.
(§2) Produce items were placed onto a sterile test tube tack with inoculated area facing up. […] The distance and voltage between the two electrodes were 9 mm and 17 kV, respectively. […] After 45 s treatment, the chamber was sealed for 30 mins (dwell time) before removal of the fresh produce items. Experiment; were repeated three times.

[2] = test system: yeast and mold; conditions: for Yeast and mold count: not inoculated
Description: as §1, §2

[3] = test system: S. Typhimurium; conditions: for Populations of S. Typhimurium, treated / Reductions of S. Typhimurium: with cold plasma
Description: To minimize the risk of possible bacteria becoming airborne during treatments, attenuated and non-pathogenic bacteria were used in the study. Two strains of non-pathogenic S. Typhimurium (ATCC 53647 and 53648) and three strains of L. innocua (ATCC 33090, ATCC 51742 and ATCC BAA680) were obtained from American Type Culture Collection (ATCC) (Manassas, Va., USA). Further studies used E. coli O157:H7 (ATCC 700728), S. Typhimurium (ATCC 53647 and 53648), and L. innocua (ATCC 33090) obtained from American Type Culture Collection (ATCC) (Manassas, Va., USA) and maintained as a part of the culture collection at the USDA Eastern Regional Research Center (Wyndmoor, Pa. USA). The bacteria were made to be resistant to nalidixic acid by successive growth in Trypic Soy Broth (TSB) (Difco, Sparks, Md., USA) with increasing nalidixic acid concentrations. All strains were stored at −80° C. in 1 mL of TSB containing 10% glycerol. Working cultures of S. Typhimurium and L. innocua were maintained in 9 mL TSB (supplemented with 100 μg/mL nalidixic acid for S. Typhimurium) at 4° C. after incubating at 37° C. for […], respectively, and sub-cultured each time.
Each strain of S. Typhimurium and L. innocua was cultured in 9 mL TSB (supplemented with 100 μg/mL nalidixic acid for S. Typhimurium) and incubated at 37° C. for 40 h and 48 h, respectively, harvested by centrifugation at 4000×g for 10 min at 4° C., and resuspended in 9 mL sterile Buffered Peptone Water (BPW; Difco). The pellets were resuspended in BPW to form cell suspensions with a final concentration of 108˜10^9 CFU/mL. Subsequently, suspended pellets of two strains of Salmonella and three strains of L. innocua were combined to obtain two separate culture cocktails.
Grape tomatoes, granny smith apples, romaine lettuce and cantaloupes were purchased from local markets (Philadelphia, Pa., USA) and kept at 10° C. prior to use. Fruits and vegetables were removed from 10° C. refrigeration and equilibrated to ambient temperature before being inoculated. Romaine lettuce was divided into upper green leaf and midrib tissues. Six tomatoes, six pieces (2×2 cm) of apple skins, five pieces (3×3 cm) of Romaine lettuce upper leaves, five pieces (3 cm length) of Romaine lettuce midrib area and six pieces (2×2 cm) of cantaloupe rinds with 2×3 mm thickness of flesh were used for each treatment per replicate. Bach piece w as spot inoculated with 10 μL of Salmonella and L. innocua by depositing droplets with a micropipette. The inoculated samples were dried in a bio-hood for 1 h (for tomato surfaces, romaine lettuce, apple skins and cantaloupe rinds) or 2 h (for tomato stem scars) at ambient temperature.
Produce items were placed onto a sterile test tube rack with the inoculated area facing up and the rack with produce pieces were placed inside of a treatment chamber (12×12×24 inch).
For tomato surfaces and apple skins, the treatment times (spray times) were set as 5, 8 and 10 s followed by 30 min dwell time. For upper leaves and midrib tissues of Romaine lettuce, the treatment times were 10, 20, 30 and 60 s followed by 30 min dwell time. For cantaloupe rinds, the treatment times were set as 10, 30 and 60 s followed by 30 min dwell time. For tomato stem scars, the treatment procedure included 5.8, 10, 20, 30, 60 s followed by 30 min dwell time, 6 cycles composed of 10 s treatment time followed by 10 min dwell time per cycle, and 3 cycles composed of 20 s treatment time followed by 20 min dwell time per cycle. A fan (E.Z.FAN, FP-108-1, Common Wealth Industrial Corp., Taiwan) was used in the chamber to facilitate the uniform distribution of mist during dwell time.
After each treatment, the tomato stem scars and surfaces with the inoculated bacteria were removed using a pair of sterile scissors.

[4] = Granny Smith apple skins, treatment time 5 s + 30 min dwell
[5] = Romaine lettuce leaves (upper leaf), treatment time 10 s + 30 min dwell
[6] = Romaine lettuce leaves (upper leaf), treatment time 20 s + 30 min dwell
[7] = Romaine lettuce leaves (upper leaf), treatment time 60 s + 30 min dwell
[8] = Romaine lettuce midrib area, treatment time 10 s + 30 min dwell
[9] = Romaine lettuce midrib area, treatment time 20 s + 30 min dwell
[10] = Romaine lettuce midrib area, treatment time 60 s + 30 min dwell
[11] = cantaloupe rinds, treatment time 10 s + 30 min dwell
[12] = cantaloupe rinds, treatment time 60 s + 30 min dwell
[13] = grape tomato stem scars, 10s × 6 (6 cycles of 10 s spray time followed by 10 min dwell time)
[14] = grape tomato stem scars, treatment time 8 s + 30 min dwell
[15] = grape tomato stem scars, treatment time 10 s + 30 min dwell
[16] = grape tomato stem scars, treatment time 20 s + 30 min dwell
[17] = grape tomato stem scars, treatment time 30 s + 30 min dwell
[18] = grape tomato surfaces, treatment time 5 s + 30 min dwell

In the case of `OO` [H2O2, hydrogen peroxide], the Total plate count ([1]; cantaloupe) is reported as 4.6 +/− 1.2a Log CFU/piece, the “Reduction in APC” value ([1]; spinach leaves) is reported as 1.3 log and the Total plate count ([1]; spinach) is reported as 4.7 +/− 1.3b Log CFU/piece. The Total plate count ([1]; tomato) was 5.4 +/− 0.5b Log CFU/piece, the “Reduction in APC” value ([1]; tomatoes) was 0.5 log and the “Yeast and mold count” value ([2]; cantaloupe) was 4.7 +/− 0.9a Log CFU/piece. The “Reduction of yeast and mold count” value ([2]; spinach) was 2.2 log, the “Yeast and mold count” value ([2]; spinach) was 4.2 +/− 2.0b Log CFU/piece and the “Reduction of yeast and mold count” value ([2]; tomato) was 3.9 log. For the same compound, the “Yeast and mold count” value ([2]; tomato) was 2.2 +/− 1.5b Log CFU/piece, the “Populations of S. Typhimurium, treated” value [3, 4] was 4.09 ± 0.13^a log CFU/piece and the “Reductions of S. Typhimurium” value [3, 4] was 1.63 ± 0.35^b log CFU/piece. The “Populations of S. Typhimurium, treated” value ([3]; Granny Smith apple skins, treatment time 8 s + 30 min dwell, ND: not detectable (detection limit 0.70 log CFU/piece)) was under 0.70 log CFU/piece, the “Reductions of S. Typhimurium” value ([3]; Granny Smith apple skins, treatment time 8 s + 30 min dwell, listed as hydrogen peroxide (H2O2) with cold plasma) was “more than 5 log CFU/piece” and the “Reductions of S. Typhimurium” value ([3]; Granny Smith apple skins, treatment time 8 s + 30 min dwell, listed as ionized hydrogen peroxide) was over 5 log CFU/piece. For the same compound, the “Populations of S. Typhimurium, treated” value [3, 5] was 5.45 ± 0.34^a log CFU/piece, the “Reductions of S. Typhimurium” value [3, 5] was 0.79 ± 0.16^c log CFU/piece and the “Populations of S. Typhimurium, treated” value [3, 6] was 3.98 ± 0.37^b log CFU/piece. For the same compound, the “Reductions of S. Typhimurium” value [3, 6] was 1.98 ± 0.24^b log CFU/piece, the “Populations of S. Typhimurium, treated” value ([3]; Romaine lettuce leaves (upper leaf), treatment time 30 s + 30 min dwell) was 3.54 ± 0.11^b log CFU/piece and the “Reductions of S. Typhimurium” value ([3]; Romaine lettuce leaves (upper leaf), treatment time 30 s + 30 min dwell, listed as ionized hydrogen peroxide) was 2.86 log CFU/piece and 2.86 ± 0.17^a log CFU/piece. The “Populations of S. Typhimurium, treated” value [3, 7] was 3.57 ± 0.25^b log CFU/piece, the “Reductions of S. Typhimurium” value [3, 7] was 2.79 ± 0.20^a log CFU/piece and the “Populations of S. Typhimurium, treated” value [3, 8] was 4.81 ± 0.22^a log CFU/piece. The “Reductions of S. Typhimurium” value [3, 8] was 1.53 ± 0.23^c log CFU/piece, the “Populations of S. Typhimurium, treated” value [3, 9] was 4.09 ± 0.25^b log CFU/piece and the “Reductions of S. Typhimurium” value [3, 9] was 2.04 ± 0.33^b log CFU/piece. For the same compound, the “Populations of S. Typhimurium, treated” value ([3]; Romaine lettuce midrib area, treatment time 30 s + 30 min dwell) was 2.54 ± 0.32^c log CFU/piece, the “Reductions of S. Typhimurium” value ([3]; Romaine lettuce midrib area, treatment time 30 s + 30 min dwell, listed as ionized hydrogen peroxide) was 3.63 log CFU/piece and 3.63 ± 0.21^a log CFU/piece and the “Populations of S. Typhimurium, treated” value [3, 10] was 2.94 ± 0.18^c log CFU/piece. The “Reductions of S. Typhimurium” value [3, 10] was 3.13 ± 0.48^a log CFU/piece, the “Populations of S. Typhimurium, treated” value [3, 11] was 4.39 ± 0.32^a log CFU/piece and the “Reductions of S. Typhimurium” value [3, 11] was 1.50 ± 0.21^b log CFU/piece. For the same compound, the “Populations of S. Typhimurium, treated” value ([3]; cantaloupe rinds, treatment time 30 s + 30 min dwell) was 4.09 ± 0.24^a log CFU/piece, the “Reductions of S. Typhimurium” value ([3]; cantaloupe rinds, treatment time 30 s + 30 min dwell, listed as ionized hydrogen peroxide) was 2.48 log CFU/piece and 2.48 ± 0.68^a log CFU/piece and the “Populations of S. Typhimurium, treated” value [3, 12] was 3.23 ± 0.28^b log CFU/piece. The “Reductions of S. Typhimurium” value [3, 12] was 2.44 ± 0.32^a log CFU/piece, the “Populations of S. Typhimurium, treated” value [3, 13] was 3.89 ± 0.39^ab log CFU/piece and the “Reductions of S. Typhimurium” value [3, 13] was 2.19 ± 0.41^b log CFU/piece. For the same compound, the “Populations of S. Typhimurium, treated” value ([3]; grape tomato stem scars, listed as printed 20s × 6 (title: 20s×3, 3 cycles of 20 s spray time with 20 min dwell time)) was 3.60 ± 0.42^b log CFU/piece, the “Reductions of S. Typhimurium” value ([3]; grape tomato stem scars, listed as printed 20s × 6 (title: 20s×3, 3 cycles of 20 s spray time with 20 min dwell time), listed as ionized hydrogen peroxide) was 2.73 log CFU/piece and 2.73 ± 0.28^a log CFU/piece and the “Populations of S. Typhimurium, treated” value ([3]; grape tomato stem scars, treatment time 5 s + 30 min dwell) was 4.26 ± 0.89^ab log CFU/piece. For the same compound, the “Reductions of S. Typhimurium” value ([3]; grape tomato stem scars, treatment time 5 s + 30 min dwell, listed as ionized hydrogen peroxide) was 1.06 log CFU/piece and 1.06 ± 0.35^d log CFU/piece, the “Populations of S. Typhimurium, treated” value [3, 14] was 4.23 ± 0.31^ab log CFU/piece and the “Reductions of S. Typhimurium” value [3, 14] was 1.22 ± 0.28^d log CFU/piece. For the same compound, the “Populations of S. Typhimurium, treated” value [3, 15] was 4.26 ± 0.71^ab log CFU/piece, the “Reductions of S. Typhimurium” value [3, 15] was 1.20 ± 0.14^d log CFU/piece and the “Populations of S. Typhimurium, treated” value [3, 16] was 4.71 ± 0.26^ab log CFU/piece. For the same compound, the “Reductions of S. Typhimurium” value [3, 16] was 1.51 ± 0.34^cd log CFU/piece, the “Populations of S. Typhimurium, treated” value [3, 17] was 4.31 ± 0.20^a log CFU/piece and the “Reductions of S. Typhimurium” value [3, 17] was 1.85 ± 0.11^bc log CFU/piece. For the same compound, the “Populations of S. Typhimurium, treated” value ([3]; grape tomato stem scars, treatment time 60 s + 30 min dwell) was 3.85 ± 0.66^ab log CFU/piece, the “Reductions of S. Typhimurium” value ([3]; grape tomato stem scars, treatment time 60 s + 30 min dwell, listed as ionized hydrogen peroxide) was 2.16 log CFU/piece and 2.16 ± 0.43^b log CFU/piece and the “Populations of S. Typhimurium, treated” value [3, 18] was 4.44 ± 0.25^a log CFU/piece. For the same compound, the “Reductions of S. Typhimurium” value [3, 18] was 1.84 ± 0.43^b log CFU/piece, the “Populations of S. Typhimurium, treated” value ([3]; grape tomato surfaces, treatment time 8 s + 30 min dwell, ND: not detectable (detection limit 0.70 log CFU/piece)) was under 0.70 log CFU/piece and the “Reductions of S. Typhimurium” value ([3]; grape tomato surfaces, treatment time 8 s + 30 min dwell, listed as hydrogen peroxide (H2O2) with cold plasma) was “more than 5 log CFU/piece”. The “Reductions of S. Typhimurium” value ([3]; grape tomato surfaces, treatment time 8 s + 30 min dwell, listed as ionized hydrogen peroxide) was over 5 log CFU/piece, the “Reductions of S. Typhimurium” value ([3]; grape tomato surfaces, treatment time 10 s + 30 min dwell) was 5.65 ± 0.21^a log CFU/piece and the “log reduction of Salmonella on other fresh produce items” value ([3]; produce other than smooth surfaces of tomatoes and apples, applied for a longer time period) was at most 3.6 log. The “log reductions of Salmonella on rough surfaces” value ([3]; rough surfaces (tomato stem scars, cantaloupe rinds), similar treatment times) was 2.8-3.6 log and the “log reductions of Salmonella on smooth surfaces” value ([3]; smooth surfaces (apples, tomatoes), 8-10 s treatment time + 30 min dwell time) was “greater than 5 log”.
